Experimental findings from patent US20130150399A1, “INHIBITORS OF THE UNFOLDED PROTEIN RESPONSE AND METHODS FOR THEIR USE” (The Board of Trustees of the Leland Stanford Junior …, priority 2006, published 2013) are described below.

The test system of one experiment is P58^IPK, DER-1. Nature of the experiment: Northern blot of XBP-1s transcription targets, HT1080 cells. In kind it is cell-based, human. The note with it: 2 μM; Tm or hypoxia 24 hours. The procedure:
Cells were cultured in 10 cm plates, harvested, and total RNA recovered with Trizol (Invitrogen, San Diego, Calif.). Total RNA (10 μg) was resolved on a 1% agarose-formaldehyde gel. ^32P-labeled probes were prepared using the Rediprime II random-prime labeling kit (GE-Amersham, Buckinghamshire, UK). The primers used to PCR amplify probes are as follows. P58^IPK: 5′[…] 3′ (SEQ ID NO: 4); 5′ […] 3′ (SEQ ID NO: 5). DER-1: 5′ […] 3′ (SEQ ID NO: 6); 5′[…] 3′ (SEQ ID NO: 7). Blots were incubated with probe overnight, washed three times in 2×SSC/0.2% SDS, dried, and exposed to a phosphorimager screen overnight. Images were analyzed using ImageQuant software (Molecular Dynamics).
A. XBP-luciferase reporter construct. Firefly luciferase was inserted downstream of the IRE1α splice site in human XBP-1 to enable the conditional translation of luciferase under ER stress in an IRE1α-dependent manner. […] After 24 hours, luciferase activity was analyzed in an automated plate reader. For each cell line, values are expressed as the percent inhibition of the median for Tm/Tg-treated wells, corrected for background. […] Values are expressed as the fold increases over uninduced levels. […] Cells were harvested, lysed, and analyzed by immunoblotting with antisera specific for HIF-1α (top), XBP-1s (middle) or actin (bottom). […] Total RNA was analyzed by Northern blotting using radiolabeled probes specific for P58^IPK or DER-1. […]

For a further experiment, the system named is HT1080 cells. Nature of the experiment: TUNEL staining, HT1080 cells under hypoxia. In kind it is cell-based, human. The note with it: 2.5 μM; 48 hours of hypoxia. The procedure: A. Effect of irestatin 9389 on PERK and ATF6 pathways. HT1080 cells were treated with vehicle alone (lanes 1-4) or 2.5 μM irestatin 9389 (lanes 5-8) and cultured under aerobic conditions for 18 hours (N) or shifted to hypoxia for the indicated times. Protein lysates were analyzed by Western blot analysis using antisera specific for ATF6 (top), CHOP/GADD153 (middle) or actin (bottom). Arrow indicates the cleaved, transcriptionally active form of ATF6. B. Cleavage of caspase-3 in irestatin-treated cells under hypoxia. HT1080 cells were cultured in normoxia (N) or under hypoxia for 36 hours (H 36) in absence or presence of irestatin 9389 (2.5 μM). Arrows indicate proteolytically cleaved caspase-3. C. Colony formation assay. HT1080 cells were treated as in B under normoxia (N) or hypoxia for 48 hours (H 48). Cells were harvested, counted, and allowed to grow under normal culture conditions for 11-12 days. Colonies were visualized with crystal violet staining. D. Quantification of clonogenic survival assay. Values represent the mean+/−SEM from at least 4 independent experiments. E. TUNEL staining of cells treated as in C. F. Quantification of TUNEL-positive cells. Values represent the mean+/− SEM from at least 3 experiments. […] Cells were harvested at the indicated times and counted by hemocytometer. Values represent the mean calculated from triplicate experiments+/−SEM. […]

In the case of `Cc1csc(NC(=O)CSc2nc3c(c(C(F)(F)F)c2C#N)CCC3)n1` [Compound 9389], the “induction of P58^IPK and DER-1 expression” value with P58^IPK, DER-1 is recorded as “fully inhibited this response”. Besides, in the experiment with HT1080 cells, the TUNEL-positive cells is 35%.
